Assay results published in ChEMBL document CHEMBL1201862, “PubChem BioAssay data set” (2004).
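Interpolation was linear, between the two tested concentrations surrounding the appropriate level; five concentrations were tested over 48 hours in 96-well plates. GI50: concentration for 50% inhibition of growth.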 The source made the active and inactive calls. Cut-off read from the data, not from the text of the source: active = GI50 up to about 1.1 µM and inactive = higher.

Columns and labels:
Experiment in all cases: DTP human tumour cell line panel, 48 h
Hs-578T = system: Hs-578T
HCT-116 = system: HCT-116
SK-MEL-28 = system: SK-MEL-28
A549 = system: A549
HOP-92 = system: HOP-92
UACC-257 = system: UACC-257
SF-295 = system: SF-295
SK-MEL-2 = system: SK-MEL-2
SF-268 = system: SF-268
NCI-H522 = system: NCI-H522
SNB-75 = system: SNB-75
SF-539 = system: SF-539
MDA-N = system: MDA-N
MDA-MB-435 = system: MDA-MB-435
K562 = system: K562
HL-60 = system: HL-60
LOX IMVI = system: LOX IMVI
SK-MEL-5 = system: SK-MEL-5
Malme-3M = system: Malme-3M
BT-549 = system: BT-549

For `COc1ccc(CC2NC(=O)/C=C/CC(C(C)C3OC3c3ccccc3)OC(=O)C(CC(C)C)OC(=O)C(C)CNC2=O)cc1Cl` (centres undefined), the GI50 (Hs-578T) was 1.78e-05 µM (active), the GI50 (HCT-116) was < 1e-05 µM (active) and the GI50 (SK-MEL-28) was 2.43e-05 µM (active). For the same molecule, the GI50 (A549) was < 1e-05 µM (active), the GI50 (HOP-92) was 0.000205 µM (active) and the GI50 (UACC-257) was 4.07e-05 µM (active). The GI50 (SF-295) was 1.34e-05 µM (active), the GI50 (SK-MEL-2) was 0.001 µM (active) and the GI50 (SF-268) was 4.55e-05 µM (active). For the same molecule, the GI50 (NCI-H522) was < 1e-05 µM (active), the GI50 (SNB-75) was 2.83e-05 µM (active) and the GI50 (SF-539) was 1.34e-05 µM (active). The GI50 (MDA-N) was < 1e-05 µM (active), the GI50 (MDA-MB-435) was < 1e-05 µM (active) and the GI50 (K562) was < 1e-05 µM (active). For the same molecule, the GI50 (HL-60) was < 1e-05 µM (active), the GI50 (LOX IMVI) was < 1e-05 µM (active) and the GI50 (SK-MEL-5) was < 1e-05 µM (active).
`Nc1ccccc1C(=O)CCC1C(=O)NC(=S)NC1=O` was tested, and the GI50 (Hs-578T) was > 100 µM (inactive), the GI50 (HCT-116) was > 100 µM (inactive) and the GI50 (SK-MEL-28) was > 100 µM (inactive). For the same molecule, the GI50 (A549) was > 100 µM (inactive), the GI50 (HOP-92) was > 91.4 µM (inactive) and the GI50 (UACC-257) was > 100 µM (inactive). The GI50 (SF-295) was > 100 µM (inactive), the GI50 (SK-MEL-2) was > 100 µM (inactive) and the GI50 (SF-268) was > 100 µM (inactive). The GI50 (NCI-H522) was > 100 µM (inactive), the GI50 (Malme-3M) was > 100 µM (inactive) and the GI50 (SNB-75) was 43.8 µM (inactive). For the same molecule, the GI50 (SF-539) was > 100 µM (inactive), the GI50 (MDA-N) was > 100 µM (inactive) and the GI50 (K562) was > 100 µM (inactive). The GI50 (HL-60) was > 100 µM (inactive), the GI50 (LOX IMVI) was > 100 µM (inactive) and the GI50 (SK-MEL-5) was > 100 µM (inactive).
In the case of `CCCCCCCCCc1c(Cl)nc(Cl)nc1Cl`, the GI50 (Hs-578T) is reported as 29.2 µM (inactive), the GI50 (HCT-116) is reported as 14.5 µM (inactive) and the GI50 (SK-MEL-28) is reported as 19.4 µM (inactive). The GI50 (A549) was 20.9 µM (inactive), the GI50 (HOP-92) was 15.3 µM (inactive) and the GI50 (UACC-257) was 19.8 µM (inactive). The GI50 (SF-295) was 20.7 µM (inactive), the GI50 (SF-268) was 18.7 µM (inactive) and the GI50 (NCI-H522) was 3.67 µM (inactive). For the same molecule, the GI50 (Malme-3M) was 10.8 µM (inactive), the GI50 (SNB-75) was 15 µM (inactive) and the GI50 (SF-539) was 18.2 µM (inactive). For the same molecule, the GI50 (MDA-N) was 14.7 µM (inactive), the GI50 (MDA-MB-435) was 13.5 µM (inactive) and the GI50 (K562) was 6.68 µM (inactive). The GI50 (HL-60) was 5.05 µM (inactive), the GI50 (LOX IMVI) was 1.95 µM (inactive) and the GI50 (SK-MEL-5) was 11.7 µM (inactive).
With `CCC(C=O)P1(=O)OC(C)(C)CN1C(C)(C)C` (centres undefined) the GI50 (HCT-116) was 59.8 µM (inactive), the GI50 (A549) was > 100 µM (inactive) and the GI50 (UACC-257) was > 100 µM (inactive). For the same molecule, the GI50 (SF-295) was 32.5 µM (inactive), the GI50 (SK-MEL-2) was 34.9 µM (inactive) and the GI50 (SF-268) was 88.3 µM (inactive). For the same molecule, the GI50 (Malme-3M) was 68.1 µM (inactive), the GI50 (SF-539) was > 100 µM (inactive) and the GI50 (MDA-MB-435) was 99.5 µM (inactive). For the same molecule, the GI50 (K562) was 77.8 µM (inactive), the GI50 (LOX IMVI) was > 100 µM (inactive) and the GI50 (BT-549) was > 100 µM (inactive). For the same molecule, the GI50 (SK-MEL-5) was > 100 µM (inactive).
`COc1ccc2c3c(c(C(=O)O)oc13)CCC2` was tested, and the GI50 (HCT-116) was > 100 µM (inactive), the GI50 (SK-MEL-28) was > 100 µM (inactive) and the GI50 (A549) was > 100 µM (inactive). The GI50 (HOP-92) was > 100 µM (inactive), the GI50 (UACC-257) was > 100 µM (inactive) and the GI50 (SF-295) was > 100 µM (inactive). For the same molecule, the GI50 (SK-MEL-2) was > 100 µM (inactive), the GI50 (SF-268) was > 100 µM (inactive) and the GI50 (NCI-H522) was > 100 µM (inactive). For the same molecule, the GI50 (Malme-3M) was > 100 µM (inactive), the GI50 (SNB-75) was 29.1 µM (inactive) and the GI50 (SF-539) was > 100 µM (inactive). For the same molecule, the GI50 (K562) was > 100 µM (inactive), the GI50 (HL-60) was > 100 µM (inactive) and the GI50 (LOX IMVI) was > 100 µM (inactive). The GI50 (SK-MEL-5) was > 100 µM (inactive).
For `CCCS(=O)(=O)/C(=C(\c1ccc(Br)cc1)S(=O)(=O)CCC)c1ccc(Br)cc1`, the GI50 (HCT-116) was > 10 µM (inactive), the GI50 (SK-MEL-28) was > 10 µM (inactive) and the GI50 (A549) was > 10 µM (inactive). For the same molecule, the GI50 (HOP-92) was > 10 µM (inactive), the GI50 (UACC-257) was > 10 µM (inactive) and the GI50 (SF-295) was > 10 µM (inactive). The GI50 (SK-MEL-2) was > 10 µM (inactive), the GI50 (SF-268) was > 10 µM (inactive) and the GI50 (NCI-H522) was > 10 µM (inactive). The GI50 (Malme-3M) was > 10 µM (inactive), the GI50 (SNB-75) was > 10 µM (inactive) and the GI50 (SF-539) was > 10 µM (inactive). The GI50 (K562) was > 10 µM (inactive), the GI50 (HL-60) was > 10 µM (inactive) and the GI50 (LOX IMVI) was > 10 µM (inactive). The GI50 (SK-MEL-5) was > 10 µM (inactive).
For `Cc1cc(=O)oc2c(CNC(CO)C(=O)O)c(O)ccc12` (centres undefined), the GI50 (Hs-578T) was > 100 µM (inactive), the GI50 (HCT-116) was > 100 µM (inactive) and the GI50 (SK-MEL-28) was > 100 µM (inactive). The GI50 (A549) was > 100 µM (inactive), the GI50 (HOP-92) was > 100 µM (inactive) and the GI50 (UACC-257) was > 100 µM (inactive). The GI50 (SF-295) was > 100 µM (inactive), the GI50 (SK-MEL-2) was > 100 µM (inactive) and the GI50 (SF-268) was > 100 µM (inactive). The GI50 (NCI-H522) was > 100 µM (inactive), the GI50 (Malme-3M) was > 100 µM (inactive) and the GI50 (SNB-75) was > 100 µM (inactive). For the same molecule, the GI50 (SF-539) was > 100 µM (inactive), the GI50 (MDA-N) was > 100 µM (inactive) and the GI50 (MDA-MB-435) was > 100 µM (inactive). For the same molecule, the GI50 (K562) was > 100 µM (inactive), the GI50 (HL-60) was > 100 µM (inactive) and the GI50 (LOX IMVI) was > 100 µM (inactive). The GI50 (SK-MEL-5) was > 100 µM (inactive).
In the case of `CCOC(=O)C1=C(C)N(Cc2ccccc2)C(C)=C(C(=O)OCC)C1c1ccccc1O`, the GI50 (HCT-116) is reported as 29.4 µM (inactive), the GI50 (SK-MEL-28) is reported as 19.2 µM (inactive) and the GI50 (A549) is reported as 29.2 µM (inactive). For the same molecule, the GI50 (HOP-92) was 13.7 µM (inactive), the GI50 (UACC-257) was 26.9 µM (inactive) and the GI50 (SF-295) was 33.1 µM (inactive). The GI50 (SK-MEL-2) was 20 µM (inactive), the GI50 (SF-268) was 32.4 µM (inactive) and the GI50 (NCI-H522) was 25.6 µM (inactive). The GI50 (Malme-3M) was 26 µM (inactive), the GI50 (SNB-75) was 27.5 µM (inactive) and the GI50 (SF-539) was 27.7 µM (inactive). For the same molecule, the GI50 (K562) was 33.4 µM (inactive), the GI50 (HL-60) was 26.6 µM (inactive) and the GI50 (LOX IMVI) was 17.9 µM (inactive). For the same molecule, the GI50 (SK-MEL-5) was 16.1 µM (inactive).
